Results reported in patent EP0551518A1, “QUINOLINECARBOXYLIC ACID DERIVATIVE” (NIPPON SHINYAKU COMPANY, LIMITED, priority 1990, dated 1992).
In brackets after ≈: the same amount, converted by molar mass. Counter-ions that a name gives are not always drawn. Like-named read-outs stand apart in the source and are kept apart here.

Experiments:
Assay type in all cases: cell-based
S. aureus OWPH 1773 = test: Determination of minimal inhibitory concentration (MIC)-2, new quinolone-resistant MRSA; details: Staphylococcus aureus, OWPH1773, 18 h; S. aureus OWPH 1773, new quinolone-resistant and methicillin-resistant; same procedure as Test Example 1
Description: (§1) Method: MIC was determined by the agar plate dilution method in accordance with the standard protocol of Japan Society of Chemotherapy (cf. Chemotherapy 29 (1), 76-79, 1981). Each bacterial culture obtained by 18-hour incubation in a sensitivity assay bouillon medium at 37°C was diluted to 10⁶ CFU/ml with the same medium. Using a microplanter, a sensitivity assay agar medium containing the test drug was inoculated with the diluted culture and incubated at 37°C for 18 hours. The MIC value was then determined. As reference drugs, 6-fluoro-1-methyl-4-oxo-7-(1-piperazinyl)-4H-[1,3]thiazeto[3,2-a]quinoline-3-carboxylic acid (referred to as control), ciprofloxacin (CPFX) and ofloxacin (OFLX) were used.
(§2) The antibacterial activity of the compounds obtained in Example 4, Example 25 and Example 26 of the present invention was assayed by the same procedure as in Test Example 1. As reference drugs, 6-fluoro-1-methyl-4-oxo-7-(1-piperazinyl)-4H-[1,3]-thiazeto[3,2-a]quinoline-3-carboxylic acid (referred to as Control), norfloxacin (NFLX) and tosufloxacin (TFLX) were used.

S. aureus OWPH 2124 = test: as above; details: Staphylococcus aureus, OWPH2124, 18 h; S. aureus OWPH 2124, new quinolone-resistant and methicillin-resistant; same procedure as Test Example 1
Description: as §1, §2

S. aureus OWPH 1796 = test: as above; details: Staphylococcus aureus, OWPH1796, 18 h; S. aureus OWPH 1796, new quinolone-resistant and methicillin-resistant; same procedure as Test Example 1
Description: as §1, §2

S. aureus Sh 47 = test: as above; details: Staphylococcus aureus, SH47, 18 h; S. aureus Sh 47, new quinolone-resistant and methicillin-resistant; same procedure as Test Example 1
Description: as §1, §2

S. aureus OWPH 1793 = test: as above; details: Staphylococcus aureus, OWPH1793, 18 h; S. aureus OWPH 1793, new quinolone-resistant and methicillin-resistant; same procedure as Test Example 1
Description: as §1, §2

S. aureus Sh 8 = test: as above; details: Staphylococcus aureus, SH8, 18 h; S. aureus Sh 8, new quinolone-resistant and methicillin-resistant; same procedure as Test Example 1
Description: as §1, §2

S. aureus Sh 44 = test: as above; details: Staphylococcus aureus, SH44, 18 h; S. aureus Sh 44, new quinolone-resistant and methicillin-resistant; same procedure as Test Example 1
Description: as §1, §2

S. aureus OWPH 1770 = test: as above; details: Staphylococcus aureus, OWPH1770, 18 h; S. aureus OWPH 1770, new quinolone-resistant and methicillin-resistant; same procedure as Test Example 1
Description: as §1, §2

S. aureus OWPH 2133 = test: as above; details: Staphylococcus aureus, OWPH2133, 18 h; S. aureus OWPH 2133, new quinolone-resistant and methicillin-resistant; same procedure as Test Example 1
Description: as §1, §2

S. aureus OWPH 1799 = test: as above; details: Staphylococcus aureus, OWPH1799, 18 h; S. aureus OWPH 1799, new quinolone-resistant and methicillin-resistant; same procedure as Test Example 1
Description: as §1, §2

S. aureus Sh 54 = test: as above; details: Staphylococcus aureus, SH54, 18 h; S. aureus Sh 54, new quinolone-resistant and methicillin-resistant; same procedure as Test Example 1
Description: as §1, §2

S. aureus OWPH 2128 = test: as above; details: Staphylococcus aureus, OWPH2128, 18 h; S. aureus OWPH 2128, new quinolone-resistant and methicillin-resistant; same procedure as Test Example 1
Description: as §1, §2

S. aureus OWPH 2134 = test: as above; details: Staphylococcus aureus, OWPH2134, 18 h; S. aureus OWPH 2134, new quinolone-resistant and methicillin-resistant; same procedure as Test Example 1
Description: as §1, §2

S. aureus OWPH 1786 = test: as above; details: Staphylococcus aureus, OWPH1786, 18 h; S. aureus OWPH 1786, new quinolone-resistant and methicillin-resistant; same procedure as Test Example 1
Description: as §1, §2

S. aureus Sh 2 = test: as above; details: Staphylococcus aureus, SH2, 18 h; S. aureus Sh 2, new quinolone-resistant and methicillin-resistant; same procedure as Test Example 1
Description: as §1, §2

S. aureus OWPH 2127 = test: as above; details: Staphylococcus aureus, OWPH2127, 18 h; S. aureus OWPH 2127, new quinolone-resistant and methicillin-resistant; same procedure as Test Example 1
Description: as §1, §2

S. aureus OWPH 1792 = test: as above; details: Staphylococcus aureus, OWPH1792, 18 h; S. aureus OWPH 1792, new quinolone-resistant and methicillin-resistant; same procedure as Test Example 1
Description: as §1, §2

[1] = system: Enterococcus faecalis ATCC 29212; test: Determination of minimal inhibitory concentration of growth (MIC)-1, agar plate dilution method; details: Enterococcus faecalis ATCC 29212, agar plate dilution, 10⁶ CFU/ml, 37°C, 18 hours
Description: as §1

Proteus vulgaris HX-19 = test: as above; details: Proteus vulgaris HX-19, agar plate dilution, 10⁶ CFU/ml, 37°C, 18 hours
Description: as §1

[2] = system: Micrococcus luteus ATCC 9341; test: as above; details: Micrococcus luteus ATCC 9341, agar plate dilution, 10⁶ CFU/ml, 37°C, 18 hours
Description: as §1

[3] = system: Staphylococcus aureus Smith; test: as above; details: Staphylococcus aureus Smith, agar plate dilution, 10⁶ CFU/ml, 37°C, 18 hours
Description: as §1

[4] = system: Staphylococcus epider-midis IFO 12993; test: as above; details: Staphylococcus epider-midis IFO 12993, agar plate dilution, 10⁶ CFU/ml, 37°C, 18 hours
Description: as §1

[5] = system: Pseudomonas aeruginosa IFO 3445; test: as above; details: Pseudomonas aeruginosa IFO 3445, agar plate dilution, 10⁶ CFU/ml, 37°C, 18 hours
Description: as §1

Escherichia coli KC-14 = test: as above; details: 10⁶ CFU/ml, 37°C
Description: as §1

[6] = system: Staphylococcus aureus OWPH 1984 (MRSA); test: as above; details: Staphylococcus aureus OWPH 1984 (MRSA), agar plate dilution, 10⁶ CFU/ml, 37°C, 18 hours
Description: as §1

[7] = system: Staphylococcus aureus OWPH 2125 (MRSA, PCA^r ); test: as above; details: Staphylococcus aureus OWPH 2125 (MRSA, PCA^r), agar plate dilution, 10⁶ CFU/ml, 37°C, 18 hours
Description: as §1

[8] = system: Bacillus subtilis ATCC 6633; test: as above; details: Bacillus subtilis ATCC 6633, agar plate dilution, 10⁶ CFU/ml, 37°C, 18 hours
Description: as §1

[9] = system: Staphylococcus aureus 209-P JC-1; test: as above; details: Staphylococcus aureus 209-P JC-1, agar plate dilution, 10⁶ CFU/ml, 37°C, 18 hours
Description: as §1

[10] = Proteus vulgaris, HX19, 18 h, read-out: MIC
[11] = Staphylococcus, IFO12993, 18 h, read-out: MIC
[12] = Pseudomonas aeruginosa, IFO3445, 18 h, read-out: MIC
[13] = Escherichia coli, KC14, 18 h, read-out: MIC
[14] = Staphylococcus aureus, MRSA, 18 h, read-out: MIC

Row | MIC (S. aureus OWPH 1773) | MIC (S. aureus OWPH 2124) | MIC (S. aureus OWPH 1796) | MIC (S. aureus Sh 47) | MIC (S. aureus OWPH 1793) | MIC (S. aureus Sh 8) | MIC (S. aureus Sh 44) | MIC (S. aureus OWPH 1770) | MIC (S. aureus OWPH 2133) | MIC (S. aureus OWPH 1799) | MIC (S. aureus Sh 54) | MIC (S. aureus OWPH 2128) | MIC (S. aureus OWPH 2134) | MIC (S. aureus OWPH 1786) | MIC (S. aureus Sh 2) | MIC (S. aureus OWPH 2127) | MIC (S. aureus OWPH 1792) | MIC ([1]; ATCC29212, read-out: MIC) | MIC (Proteus vulgaris HX-19; [10]) | MIC ([2]; ATCC9341, read-out: MIC) | Compound | further results
1 | 100 µg/mL (≈ 286 µM) | 12.5 µg/mL (≈ 35.8 µM) | 25 µg/mL (≈ 71.6 µM) | 100 µg/mL (≈ 286 µM) | > 100 µg/mL | 100 µg/mL (≈ 286 µM) | 50 µg/mL (≈ 143 µM) | 50 µg/mL (≈ 143 µM) | 25 µg/mL (≈ 71.6 µM) | > 100 µg/mL | > 100 µg/mL | > 100 µg/mL | 50 µg/mL (≈ 143 µM) | > 100 µg/mL | 100 µg/mL (≈ 286 µM) | > 100 µg/mL | 100 µg/mL (≈ 286 µM) | 0.39 µg/mL (≈ 1.12 µM) | 0.025 µg/mL (≈ 0.0716 µM) | 1.56 µg/mL (≈ 4.46 µM) | CC1Sc2c(C(=O)O)c(=O)c3cc(F)c(N4CCNCC4)cc3n21 (centres unmarked) [Control, 6-fluoro-1-methyl-4-oxo-7-(1-piperazinyl)-4H-[1,3]thiazeto[3,2-a]quinoline-3-carboxylic acid, reference compound] | MIC ([3]; read-out: MIC): 0.1 µg/mL (≈ 0.286 µM); MIC [4, 11]: 0.2 µg/mL (≈ 0.572 µM); MIC [5, 12]: 0.05 µg/mL (≈ 0.143 µM); MIC (Escherichia coli KC-14; [13]): 0.012 µg/mL (≈ 0.0343 µM); MIC [6, 14]: 0.39 µg/mL (≈ 1.12 µM); MIC [7, 14]: 12.5 µg/mL (≈ 35.8 µM); MIC ([8]; ATCC6633, read-out: MIC): 0.1 µg/mL (≈ 0.286 µM); MIC ([9]; Staphylococcus aureus, 209P, 18 h, read-out: MIC): 0.1 µg/mL (≈ 0.286 µM)
2 | 0.78 µg/mL (≈ 2.19 µM) | 0.78 µg/mL (≈ 2.19 µM) | 0.78 µg/mL (≈ 2.19 µM) | 0.78 µg/mL (≈ 2.19 µM) | 1.56 µg/mL (≈ 4.38 µM) | 0.78 µg/mL (≈ 2.19 µM) | 0.78 µg/mL (≈ 2.19 µM) | 0.2 µg/mL (≈ 0.561 µM) | 0.78 µg/mL (≈ 2.19 µM) | 1.56 µg/mL (≈ 4.38 µM) | 0.78 µg/mL (≈ 2.19 µM) | 1.56 µg/mL (≈ 4.38 µM) | 0.78 µg/mL (≈ 2.19 µM) | 1.56 µg/mL (≈ 4.38 µM) | 0.78 µg/mL (≈ 2.19 µM) | 1.56 µg/mL (≈ 4.38 µM) | 0.78 µg/mL (≈ 2.19 µM) | 0.05 µg/mL (≈ 0.14 µM) | 0.012 µg/mL (≈ 0.0337 µM) | 0.2 µg/mL (≈ 0.561 µM) | CC1Sc2c(C(=O)O)c(=O)c3cc(F)c(-c4ccc(N)cc4)cc3n21 (centres unmarked) [Example 4, 7-(4-Aminophenyl)-6-fluoro-1-methyl-4-oxo-4H-[1,3]thia-zeto[3,2-a]quinoline-3-carboxylic acid] | MIC ([3]; read-out: MIC): ≤ 0.006 µg/mL; MIC [4, 11]: ≤ 0.006 µg/mL; MIC [5, 12]: 0.1 µg/mL (≈ 0.281 µM); MIC (Escherichia coli KC-14; [13]): 0.025 µg/mL (≈ 0.0702 µM); MIC [6, 14]: ≤ 0.006 µg/mL; MIC [7]: ≤ 0.006 μ g/ml; MIC ([8]; ATCC6633, read-out: MIC): ≤ 0.006 µg/mL; MIC [9]: 0.012 μ g/ml
3 | – | – | – | – | – | – | – | – | – | – | – | – | – | – | – | – | – | – | – | – | CC1Sc2c(C(=O)O)c(=O)c3cc(F)c(-c4ccc(N)cc4)cc3n21 (centres unmarked) [Example 56, 7-(4-Aminophenyl)-6-fluoro-1-methyl-4-oxo-4H-[1,3]thiazeto[3,2-a]quinoline-3-carboxylic acid 1/2 sulfate] | MIC [1]: 0.05 μ g/ml; MIC (Proteus vulgaris HX-19): ≤ 0.006 μ g/ml; MIC [2]: 0.20 μ g/ml; MIC [3]: ≤ 0.006 μ g/ml; MIC [4]: 0.012 μ g/ml; MIC [5]: 0.20 μ g/ml; MIC (Escherichia coli KC-14; 18 hours): 0.05 μ g/ml; MIC [6]: 0.012 μ g/ml; MIC [7]: 0.05 μ g/ml; MIC [8]: ≤ 0.006 μ g/ml; MIC [9]: 0.025 μ g/ml
4 | > 100 µg/mL | > 100 µg/mL | > 100 µg/mL | > 100 µg/mL | > 100 µg/mL | > 100 µg/mL | > 100 µg/mL | > 100 µg/mL | > 100 µg/mL | > 100 µg/mL | > 100 µg/mL | > 100 µg/mL | > 100 µg/mL | > 100 µg/mL | > 100 µg/mL | > 100 µg/mL | > 100 µg/mL | – | – | – | CCn1cc(C(=O)O)c(=O)c2cc(F)c(N3CCNCC3)cc21 [NFLX, norfloxacin, reference compound] | –
5 | > 100 µg/mL | 12.5 µg/mL (≈ 30.9 µM) | > 100 µg/mL | > 100 µg/mL | > 100 µg/mL | > 100 µg/mL | > 100 µg/mL | > 100 µg/mL | > 100 µg/mL | > 100 µg/mL | > 100 µg/mL | > 100 µg/mL | > 100 µg/mL | > 100 µg/mL | > 100 µg/mL | > 100 µg/mL | > 100 µg/mL | – | – | – | NC1CCN(c2nc3c(cc2F)c(=O)c(C(=O)O)cn3-c2ccc(F)cc2F)C1 (centres unmarked) [TFLX, tosufloxacin, reference compound] | –
